In PubChem BioAssay (NCI):
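Dose response: 5 concentrations. Exposure: 48 h. Format: 96-well plates. Endpoint: linear interpolation; highest concentration if not reached. GI50 = concentration required for 50% inhibition of growth. TGI marks complete inhibition of growth.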

Columns and labels:
Experiment in all cases: DTP human tumour cell line panel, 48 h
786-0 renal = test system: 786-0 renal
A498 renal = test system: A498 renal
A549 NSCLC = test system: A549 NSCLC
ACHN renal = test system: ACHN renal
BT-549 breast = test system: BT-549 breast
CAKI-1 renal = test system: CAKI-1 renal
CCRF-CEM leukemia = test system: CCRF-CEM leukemia
COLO 205 colon = test system: COLO 205 colon
DU-145 prostate = test system: DU-145 prostate
EKVX NSCLC = test system: EKVX NSCLC
HCC-2998 colon = test system: HCC-2998 colon
HCT-116 colon = test system: HCT-116 colon
HCT-15 colon = test system: HCT-15 colon
HL-60(TB) leukemia = test system: HL-60(TB) leukemia
HOP-62 NSCLC = test system: HOP-62 NSCLC
HOP-92 NSCLC = test system: HOP-92 NSCLC
HS 578T breast = test system: HS 578T breast
HT29 colon = test system: HT29 colon
IGROV1 ovarian = test system: IGROV1 ovarian
K-562 leukemia = test system: K-562 leukemia
KM12 colon = test system: KM12 colon
LOX IMVI melanoma = test system: LOX IMVI melanoma
M14 melanoma = test system: M14 melanoma
MALME-3M melanoma = test system: MALME-3M melanoma
MCF7 breast = test system: MCF7 breast
MDA-MB-231 breast = test system: MDA-MB-231 breast
MDA-MB-435 = test system: MDA-MB-435
MDA-MB-468 breast = test system: MDA-MB-468 breast
MOLT-4 leukemia = test system: MOLT-4 leukemia
NCI-H226 lung = test system: NCI-H226 lung
NCI-H23 lung = test system: NCI-H23 lung
NCI-H460 lung = test system: NCI-H460 lung
NCI-H522 lung = test system: NCI-H522 lung
OVCAR-3 ovarian = test system: OVCAR-3 ovarian
OVCAR-4 ovarian = test system: OVCAR-4 ovarian
OVCAR-5 ovarian = test system: OVCAR-5 ovarian
OVCAR-8 ovarian = test system: OVCAR-8 ovarian
PC-3 prostate = test system: PC-3 prostate
RPMI-8226 leukemia = test system: RPMI-8226 leukemia
RXF 393 renal = test system: RXF 393 renal
SF-268 CNS = test system: SF-268 CNS
SF-295 CNS = test system: SF-295 CNS
SF-539 CNS = test system: SF-539 CNS
SK-MEL-2 melanoma = test system: SK-MEL-2 melanoma
SK-MEL-28 melanoma = test system: SK-MEL-28 melanoma
SK-MEL-5 melanoma = test system: SK-MEL-5 melanoma
SK-OV-3 ovarian = test system: SK-OV-3 ovarian
SN12C renal = test system: SN12C renal
SNB-19 CNS = test system: SNB-19 CNS
SNB-75 CNS = test system: SNB-75 CNS
SR leukemia = test system: SR leukemia
SW-620 colon = test system: SW-620 colon
T-47D breast = test system: T-47D breast
TK-10 renal = test system: TK-10 renal
U251 CNS = test system: U251 CNS
UACC-257 melanoma = test system: UACC-257 melanoma
UACC-62 melanoma = test system: UACC-62 melanoma
UO-31 renal = test system: UO-31 renal

O=C(O)c1ccc(-c2ccc(/C=N/NC(=O)c3[nH]c4ccc(Br)cc4c3-c3ccccc3)s2)cc1
GI50 (786-0 renal): 3.13 µM
TGI (786-0 renal): 11 µM
GI50 (A498 renal): 20.7 µM
TGI (A498 renal): 52 µM
GI50 (A549 NSCLC): 13.5 µM
TGI (A549 NSCLC): 44.6 µM
GI50 (ACHN renal): 11.4 µM
TGI (ACHN renal): 55.7 µM
GI50 (BT-549 breast): 1.95 µM
TGI (BT-549 breast): 5.83 µM
GI50 (CAKI-1 renal): 21.1 µM
TGI (CAKI-1 renal): 64.1 µM
GI50 (CCRF-CEM leukemia): 4.44 µM
TGI (CCRF-CEM leukemia): 26.9 µM
GI50 (COLO 205 colon): 16.1 µM
TGI (COLO 205 colon): 33.9 µM
GI50 (DU-145 prostate): 24.9 µM
TGI (DU-145 prostate): > 100 µM
GI50 (EKVX NSCLC): 14.4 µM
TGI (EKVX NSCLC): 39.1 µM
GI50 (HCC-2998 colon): 11.8 µM
TGI (HCC-2998 colon): 27.3 µM
GI50 (HCT-116 colon): 3.7 µM
TGI (HCT-116 colon): 12.6 µM
GI50 (HCT-15 colon): 5.27 µM
TGI (HCT-15 colon): 20 µM
GI50 (HL-60(TB) leukemia): 4.31 µM
TGI (HL-60(TB) leukemia): 25 µM
GI50 (HOP-62 NSCLC): 12.3 µM
TGI (HOP-62 NSCLC): 30.4 µM
GI50 (HOP-92 NSCLC): 4.41 µM
TGI (HOP-92 NSCLC): 22 µM
GI50 (HS 578T breast): 6.67 µM
TGI (HS 578T breast): 38.9 µM
GI50 (HT29 colon): 12.7 µM
TGI (HT29 colon): 30.4 µM
GI50 (IGROV1 ovarian): 7.85 µM
TGI (IGROV1 ovarian): 23.1 µM
GI50 (K-562 leukemia): 6.15 µM
TGI (K-562 leukemia): 37.1 µM
GI50 (KM12 colon): 15.3 µM
TGI (KM12 colon): 39.7 µM
GI50 (LOX IMVI melanoma): 25.7 µM
TGI (LOX IMVI melanoma): > 100 µM
GI50 (M14 melanoma): 6.32 µM
TGI (M14 melanoma): 30.3 µM
GI50 (MALME-3M melanoma): 16.3 µM
TGI (MALME-3M melanoma): 38.2 µM
GI50 (MCF7 breast): 18.1 µM
TGI (MCF7 breast): 65.1 µM
GI50 (MDA-MB-231 breast): 20.6 µM
TGI (MDA-MB-231 breast): 47.2 µM
GI50 (MDA-MB-435): 6.81 µM
TGI (MDA-MB-435): 28.2 µM
GI50 (MDA-MB-468 breast): 19.1 µM
TGI (MDA-MB-468 breast): 59.7 µM
GI50 (MOLT-4 leukemia): 6.42 µM
TGI (MOLT-4 leukemia): 34.2 µM
GI50 (NCI-H226 lung): 21 µM
TGI (NCI-H226 lung): 75.5 µM
GI50 (NCI-H23 lung): 21.7 µM
TGI (NCI-H23 lung): 54.5 µM
GI50 (NCI-H460 lung): 12.3 µM
TGI (NCI-H460 lung): 31.5 µM
GI50 (NCI-H522 lung): 15.9 µM
TGI (NCI-H522 lung): 33.4 µM
GI50 (OVCAR-3 ovarian): 13.7 µM
TGI (OVCAR-3 ovarian): 35.8 µM
GI50 (OVCAR-4 ovarian): 7.68 µM
TGI (OVCAR-4 ovarian): 44.9 µM
GI50 (OVCAR-5 ovarian): 17.1 µM
TGI (OVCAR-5 ovarian): 31.5 µM
GI50 (OVCAR-8 ovarian): 15.9 µM
TGI (OVCAR-8 ovarian): 66.9 µM
GI50 (PC-3 prostate): 4.79 µM
TGI (PC-3 prostate): 37 µM
GI50 (RPMI-8226 leukemia): 6.05 µM
TGI (RPMI-8226 leukemia): 51.3 µM
GI50 (RXF 393 renal): 13.9 µM
TGI (RXF 393 renal): 57.7 µM
GI50 (SF-268 CNS): 13.5 µM
TGI (SF-268 CNS): 46 µM
GI50 (SF-295 CNS): 7.34 µM
TGI (SF-295 CNS): 26.2 µM
GI50 (SF-539 CNS): 6.79 µM
TGI (SF-539 CNS): 22.2 µM
GI50 (SK-MEL-2 melanoma): 15.6 µM
TGI (SK-MEL-2 melanoma): 35.7 µM
GI50 (SK-MEL-28 melanoma): 7.17 µM
TGI (SK-MEL-28 melanoma): 21.6 µM
GI50 (SK-MEL-5 melanoma): 12 µM
TGI (SK-MEL-5 melanoma): 27 µM
GI50 (SK-OV-3 ovarian): 20 µM
TGI (SK-OV-3 ovarian): 41.2 µM
GI50 (SN12C renal): 9.73 µM
TGI (SN12C renal): 29.7 µM
GI50 (SNB-19 CNS): 6.76 µM
TGI (SNB-19 CNS): 20.5 µM
GI50 (SNB-75 CNS): 11.2 µM
TGI (SNB-75 CNS): 44.8 µM
GI50 (SR leukemia): 13.7 µM
TGI (SR leukemia): 58 µM
GI50 (SW-620 colon): 13.8 µM
TGI (SW-620 colon): 34.1 µM
GI50 (T-47D breast): 13.9 µM
TGI (T-47D breast): 59.5 µM
GI50 (TK-10 renal): 26.8 µM
TGI (TK-10 renal): > 100 µM
GI50 (U251 CNS): 5.98 µM
TGI (U251 CNS): 22 µM
GI50 (UACC-257 melanoma): 18.7 µM
TGI (UACC-257 melanoma): 50.2 µM
GI50 (UACC-62 melanoma): 11.7 µM
TGI (UACC-62 melanoma): 24.6 µM
GI50 (UO-31 renal): 10.4 µM
TGI (UO-31 renal): 33.9 µM
